Source: the NIST ThermoML archive (doi:10.1016/j.tca.2018.04.014)
± gives the expanded uncertainty stated by the source.

Experiments:
[1] = DSC
[2] = Molar enthalpy of transition or fusion; conditions: DSC

Triple point temperature ([1]; Crystal 1)	Triple point temperature ([1]; Crystal 2)	Triple point temperature ([1]; Crystal 3)	Molar enthalpy of transition or fusion ([2]; Crystal 2)	Molar enthalpy of transition or fusion ([2]; Crystal 3)	SMILES
453.9 ± 3.1 K	375.3 ± 3.1 K	246.3 ± 3.1 K	0.0382 ± 0.17 kcal/mol	3.17 ± 0.184 kcal/mol	CC1(C)[C@H]2CC[C@]1(C)C(=O)C2 [(1S)-1,7,7-trimethylbicyclo[2.2.1]heptan-2-one]
479.7 ± 3.1 K	347.4 ± 3.1 K	212.3 ± 3.1 K	0.715 ± 0.174 kcal/mol	0.172 ± 0.172 kcal/mol	CC1(C)[C@H]2CC[C@]1(C)[C@H](O)C2 [(1S-endo)-1,7,7-trimethylbicyclo[2.2.1]heptan-2-ol]
481.6 ± 3.1 K	346.7 ± 3.1 K	213.5 ± 3.1 K	0.724 ± 0.174 kcal/mol	0.179 ± 0.172 kcal/mol	CC1(C)[C@@H]2CC[C@@]1(C)[C@@H](O)C2 [d-borneol]
452.7 ± 3.1 K	372.3 ± 3.1 K	242.8 ± 3.1 K	0.0359 ± 0.17 kcal/mol	2.68 ± 0.182 kcal/mol	CC1(C)[C@@H]2CC[C@@]1(C)C(=O)C2 [d-camphor]
